Columns and labels:
blood = test: Hemolysis in blood of volunteers (cyanomethahemoglobin method); type: cell-based, human (volunteers); conditions: 45 minutes at 37° C., various concentrations, vs plasma negative control; FIGURE
protein-kinase C (PKC) = test: Glutamate-induced PKC translocation, [3H]-P(BtO)2 bond in intact primary cerebellar granule cells; type: cell-based, Sprague-Dawley rats; conditions: for IC50: 2 h pre-incubation at 37° C., 1 μM glutamate, absence of Mg2+, read-out: PKC inhibition (ED50), glutamate-induced PKC translocation
Protocol: Translocation of PKC can be measured by assessment of the bond sites of 4-B-[3H]-phorbol 12,13-dibutyrate [3H]-P(Bt02) in intact cells.
(§5) Primary cultures were prepared with granule cells from 8-day-old Sprague-Dawley rats (Zivic Miller). […] The cultures were used for the experiments on the 8th and 9th days in vitro.
After 2 hours' incubation at 37° C. of the cells with or without the compounds (see above), the monolayers were washed once and the [^3 H]-P(BtO2) bond was assessed in the presence of 1 μM of glutamate and in the absence of Mg^2 +. […] Preliminary experiments have shown that balance is reached within 10 minutes, so the monolayers were incubated with [^3 H]-P(Bt0)2 for 15 minutes at 22° C. […] After incubation, the cells were washed three times with cold Locke's solution, and then suspended with 0.1M NaOH. Aliquots of the suspension were then used for protein determination (9) and liquid scintillation count. The nonspecific bond was determined in the presence of 2 μM phorbol 12-tetradecanoate 13-acetate (PTA).

[1] = test system: primary granule cell cultures; test: Protection from glutamate-induced neuronal toxicity in primary granule cell cultures; type: cell-based, Sprague-Dawley rats
Protocol: as §5
Monolayers of intact granule cells were pre-incubated with various compounds at various concentrations for 2 hours at 37° C. […] Cell survival was assessed by histochemical techniques after 24 hours. In particular, cell viability was assessed after fluorescein staining, which gives green fluorescence to vital cells and red fluorescence to nonvital ones.

[2] = test system: cerebellar cells in culture; test: Neurotoxicity of the compounds themselves in culture in the absence of glutamate; type: cell-based, Sprague-Dawley rats; conditions: compared with concentrations antagonizing PKC translocation and neuronal toxicity induced by glutamate
Protocol: (§1) The following experiments show studies carried out with N-dichloroacetylsphingosine, in comparison to sphingosine. In particular, their effects on PKC translocation and glutamate-induced neuronal toxicity in primary granule cell cultures were observed. Possible cytotoxic effects of the products were assessed according to their neurotoxic effects in cerebellar cells in culture, as well as hemolysis.
(§2) Primary cultures were prepared with granule cells from 8-day-old Sprague-Dawley rats (Zivic Miller). These cultures have a granule cell content of >90%, 5% of GABAergic neurons [Gallo V. et al., Proc. Natl. Acad. Sci. USA 79, 7919-7923 (1982)] and <5% of glia cells [Vaccarino F. M. et al., J. Neurosci. 7, 65-76 (1987)]. The cultures were used for the experiments on the 8th and 9th days in vitro.
(§3) On the 8th and 9th days in vitro, sphingosines and N-dichloroacetylsphingosines at various concentrations (1-100μM) were added to the cultures. In particular, monolayers of granule cells were pre-incubated with these compounds in Locke's solution (1 ml) for 2 hrs at 37° C. The sphingosine was dissolved in ethanol, stored as an equimolar complex with bovine serum albumin (BSA) with no fatty acids, and diluted directly with the Locke's solution used to preincubate the cells. The N-dichloroacetylsphingosine was dissolved in DMSO and diluted directly in Locke's solution (as noted above). Aliquots of the dilutions were dried in a flow of N2, after which Locke's solution was added until the desired concentration was reached.
(§4) Possibile cytotoxicity of the compounds themselves was calculated by assessing the toxicity in the […] cultures in the absence of glutamate. The experiments and techniques used were those described above, with the difference that glutamate was omitted. The possible hemolytic effects of the compounds were also assessed. Samples of blood were taken from 4 volunteers. Each sample was subdivided into three test tubes as follows: […]

[3] = as above; type: cell-based, Sprague-Dawley rats; conditions: rat, cerebellar granule cells; 24 hours, absence of glutamate; read-out: Neurotoxicity in 24 hours (ED50)
Protocol: as §1, §2, §3, §4

PKC [4] = conditions: literature (Hannun, Merril, Wilson); cited from earlier work
[3H]-P(Bt02) bond = literature; cited from earlier work
granule cells = conditions: literature; cited from earlier work
PKC [5] = conditions: granule cells; Vaccarino et al. 1987; cited from earlier work
[6] = test system: glutamate high affinity recognition site; conditions: literature; cited from earlier work

Compound	Hemolysis (blood)	Inhibition of glutamate-induced PKC translocation (in words) (protein-kinase C (PKC))	IC50 (protein-kinase C (PKC)) [µM]	Reduction of cell toxicity induced by glutamate (in words) ([1]; 50 μM glutamate)	EC50 ([1]; Rattus norvegicus, 2 h pre-incubation at 37° C., 50 μM glutamate 15 min without Mg2+, survival after 24 hours, read-out: Protection from glutamate (ED50), neuronal toxicity induced by glutamate) [µM]	Neurotoxicity of the compound itself (in words) [2]	CC50 at 24 h [3] [µM]	Effect on activity and translocation of PKC (PKC [4])	Interference with the [3H]-P(Bt02) bond ([3H]-P(Bt02) bond)	Protection from glutamate-induced cell damage (granule cells)	Effect on glutamate-induced translocation and activation of PKC (PKC [5])	Interference with the glutamate bond at its high affinity recognition site [6]
CCCCCCCCCCCCC/C=C/[C@@H](O)[C@H](CO)NC(=O)C(Cl)Cl [N-dichloroacetylsphingosine, N-DICHLOROACETYL SPHINGOSINE]	does not cause hemolysis	inhibited glutamate-induced PKC translocation	30	significantly reducing cell toxicity induced by glutamate	30	either no toxicity at all, or toxicity at significantly higher concentrations than those able to antagonize translocation induced by glutamate (column 1) as well as the neuronal toxicity induced by glutamate	> 100	–	–	–	–	–
CCCCCCCCCCCCC/C=C/[C@@H](O)[C@@H](N)CO [Sphingosine]	contrary to sphingosine, does not cause hemolysis	–	20	–	–	–	10 to 20	inhibit the activity and translocation of PKC	–	–	–	–
monosialosyl-N-tetra-glycosylceramide [GM1]	–	–	–	–	–	–	–	–	do not interfere with the glutamate bond up to its high affinity recognition site or with the [3H]-P(Bt02) bond	offer protection from glutamate-induced cell damage	inhibits the translocation and activation of PKC induced by glutamate	do not interfere with the glutamate bond up to its high affinity recognition site
trisialosyl-N-tetra-glycosylceramide [GT1b]	–	–	–	–	–	–	–	–	do not interfere with the glutamate bond up to its high affinity recognition site or with the [3H]-P(Bt02) bond	offer protection from glutamate-induced cell damage	inhibits the translocation and activation of PKC induced by glutamate	do not interfere with the glutamate bond up to its high affinity recognition site

Source: patent US5519007A, “Lysosphingolipid derivatives” (Fidia, S.p.A., priority 1988, dated 1996)
